# Where two headings read alike, the source gives them in different places.
# How the values were obtained:
# [1] = target: T1, Full length wild-type cereblon CRBN (Homo sapiens, UniProt Q96SW2); experiment: Fluorescence polarization (FP) assay indicating cereblon binding; conditions: CRBN 80.0 nM, fluorescent probe 5 nM, FP measured after 12 hours; read-out: rFP IC50
# T1 construct: Full length wild-type cereblon CRBN (80.0 nM, 10 μL) was incubated in assay buffer
# Text: Protocol for Fluorescent Polarization Assay
# Compound activity was monitored in a fluorescence polarization (FP) homogeneous assay using 1-[5-({2-[2-(2-{[2-(2,6-dioxopiperidin-3-yl)-1,3-dioxo-2,3-dihydro-1H-isoindol-4-yl]oxy}acetamido)ethoxy]ethyl}carbamoyl)pentyl]-3,3-dimethyl-2-[(1E,3E)-5-[(2E)-1,3,3-trimethyl-5-sulfo-2,3-dihydro-1H-indol-2-ylidene]penta-1,3-dien-1-yl]-3H-indol-1-ium-5-sulfonate as a fluorescent probe. Unless otherwise stated, all reagents were purchased from Sigma Aldrich. Enzymatic reactions were conducted in Perkin-Elmer Black 384 well ProxiPlate Plus (catalogue no. 6008269) in 10 μL total volume. Full length wild-type cereblon CRBN (80.0 nM, 10 μL) was incubated in assay buffer containing 20 mM HEPES (pH 8.0), […], 0.5 mM TCEP and 0.05% Tween 20 in the presence or absence of compound (300 nL). Inhibitors were stored as 10 mM DMSO stocks in an inert environment (low humidity, dark, low oxygen, room temperature) using the Storage Pod System. Compounds and DMSO were dispensed using the Echo E5XX (Labcyte Inc. USA) to give concentrations from 300 to 0.937 or 3000 to 9.3 nM in a 12 data point curve. […] Following incubation at room temperature for […], the assay was initiated by dispensing the probe to a final concentration of 5 nM (2.5 nL of a 20 μM stock) using the Echo E5XX. FP was measured after a period of 12 hours using a Pherastar plate reader (BMG Labtech, Germany) exciting at 590 nm and measuring the amount of parallel and perpendicular light at 675 nm. The FP signal was subsequently normalized to the no-compound control (i.e., DMSO). Analysis and IC50 values were derived using Dotmatics (Dotmatics UK) software.
# GSPT1 = GSPT1 (Homo sapiens, UniProt P15170+Q96SW2); experiment: Immunofluorescence assay for GSPT1 degradation in CAL-51 cells; format: cell-based; set-up: CAL-51 cells were purchased from DSMZ (cat. Number ACC302); endogenous in cells; host or cells: CAL-51 (DSMZ ACC302); conditions: compound treatment 6 hours
# Protocol: CAL-51 cells were purchased from DSMZ (cat. Number ACC302), sub-cultured in 90% Dulbecco's MEM (4.5 g/L glucose, Gibco 11965) +10% heat inactivated FBS (BioConcept, 2-01F136I) and incubated at 37° C., 5% CO2. For the assay, imaging microtiterplate Cell Carrier 96 Ultra (Perkin Elmer 6055302) were pre-coated with Fibronectin (Sigma F085, 300 at 0.2 μg/ml) in PBS (1000, Gibco 14190) for 45 min at room temperature, rinsed with PBS and CAL-51 cells (30K cells/well) were plated and let to adhere overnight. Cells were treated with compounds typically using a serial dilution ranging from 30 μM to 0.1 nM for 6 hours. Compounds were stored at 10 mM DMSO stocks. Vehicle (DMSO), positive (CC-885, 10 μM) and rescue controls (positive control plus 0.2 μM bortezomib) were also included at this stage. Cells were subsequently rinsed with PBS and fixed in 10% Formalin solution (50 μl, Sigma HT5011)) for 20 mins at room temperature. Following three consecutive PBS washes (100 μl), cells were permeabilized in 0.1% Triton X-100 in PBS (Sigma 93443, 50 μl) for 15 mins at room temperature. Following three further PBS washes, 50 μl blocking buffer (1% BSA, Sigma A4503, in PBS) was added for 45 min for signal-to-noise reduction. Primary antibody (human GSPT1, Sigma HPA052488) was diluted in blocking buffer (dil. 1/300, 35 μl/well) and incubated with the cells overnight at 4° C. After three PBS washes, Alexa-fluor 488 coupled secondary antibodies (Invitrogen, A32731, dil. 1/1000), Alexa-fluor 647-Phalloïdin (Invitrogen, A22287, dil. 1/200) and DAPI (Thermo, #62248, dil.1/1000) were diluted in blocking buffer and incubated with the samples for 2 hours at room temperature. After three final PBS washes, samples were conserved in 1000 PBS in the dark, until measurement. Image acquisition was performed on the Operetta High-Content Imager (Perkin-Elmer). Fluorescence intensity of Alexa-Fluor 488 (GSPT1), Alexa-Fluor 647 (Actin) and DAPI (Nucleus) were measured. For the determination of GSPT1 DC50 values, a custom algorithm implemented in the PerkinElmer image analysis software Harmony-Acapella® was developed. After user-defined setting of adjustment parameters, the analysis was run identically without human intervention for all image fields. DAPI staining of the nuclei was used to determine the location of cells using standard nuclei detection modules. Segmentation artifacts were removed by threshold-based filters for area, roundness and intensity. The outline of the cells was determined analogously from the sum of the normalized, smoothed DAPI and Actin channel, starting from each nucleus. The Alexa-Fluor 488 (GSPT1) signal intensity in each cell was finally measured, in order to obtain a Mean intensity per cell. GSPT1 degradation (DC50) was calculated after normalization to controls and data import in CDD vault Database, using non-linear regression. Activity for GSPT1 Degradation Table 3 assigns each compound a code indicating the ability for GSPT1 degradation: A, B or C. According to the code, A represents a DC50 value of ≤100 nM, B represents a DC50 value >100 nM and ≤300 nM and C represents a DC50 value of >300 nM.
# [2] = read-out: Code: activity for GSPT1 degradation (DC50)
# [3] = GSPT1 degradation, read-out: DC50
# T1 sequence (Q96SW2 whole entry): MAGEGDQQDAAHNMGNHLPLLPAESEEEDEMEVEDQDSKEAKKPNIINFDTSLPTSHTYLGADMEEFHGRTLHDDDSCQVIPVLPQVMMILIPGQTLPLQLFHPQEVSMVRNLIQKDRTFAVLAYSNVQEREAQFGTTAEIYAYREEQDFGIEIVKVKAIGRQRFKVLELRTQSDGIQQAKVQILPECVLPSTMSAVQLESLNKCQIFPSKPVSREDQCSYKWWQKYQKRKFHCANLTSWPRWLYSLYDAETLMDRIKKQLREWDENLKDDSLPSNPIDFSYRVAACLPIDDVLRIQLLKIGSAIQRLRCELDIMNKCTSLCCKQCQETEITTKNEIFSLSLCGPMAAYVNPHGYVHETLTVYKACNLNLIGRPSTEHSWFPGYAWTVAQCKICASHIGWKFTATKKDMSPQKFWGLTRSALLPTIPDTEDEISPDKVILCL
# Chain of GSPT1 (P15170 whole entry): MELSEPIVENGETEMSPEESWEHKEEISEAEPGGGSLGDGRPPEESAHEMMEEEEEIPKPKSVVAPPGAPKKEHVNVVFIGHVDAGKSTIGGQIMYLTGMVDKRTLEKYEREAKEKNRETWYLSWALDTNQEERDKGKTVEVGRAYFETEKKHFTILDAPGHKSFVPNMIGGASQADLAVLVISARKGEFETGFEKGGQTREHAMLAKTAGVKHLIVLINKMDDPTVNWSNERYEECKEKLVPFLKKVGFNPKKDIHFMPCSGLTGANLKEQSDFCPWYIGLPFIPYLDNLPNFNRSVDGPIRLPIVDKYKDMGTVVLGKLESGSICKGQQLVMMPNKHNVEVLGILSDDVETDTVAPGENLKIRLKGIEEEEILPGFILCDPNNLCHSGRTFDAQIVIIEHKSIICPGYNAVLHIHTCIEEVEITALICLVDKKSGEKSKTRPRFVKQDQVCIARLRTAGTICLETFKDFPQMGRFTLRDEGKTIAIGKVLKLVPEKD
# Chain of GSPT1 (Q96SW2 whole entry): as the sequence (Q96SW2 whole entry) above
# Chain of GSPT1 (Q16531 2-1140 partner limits assumed): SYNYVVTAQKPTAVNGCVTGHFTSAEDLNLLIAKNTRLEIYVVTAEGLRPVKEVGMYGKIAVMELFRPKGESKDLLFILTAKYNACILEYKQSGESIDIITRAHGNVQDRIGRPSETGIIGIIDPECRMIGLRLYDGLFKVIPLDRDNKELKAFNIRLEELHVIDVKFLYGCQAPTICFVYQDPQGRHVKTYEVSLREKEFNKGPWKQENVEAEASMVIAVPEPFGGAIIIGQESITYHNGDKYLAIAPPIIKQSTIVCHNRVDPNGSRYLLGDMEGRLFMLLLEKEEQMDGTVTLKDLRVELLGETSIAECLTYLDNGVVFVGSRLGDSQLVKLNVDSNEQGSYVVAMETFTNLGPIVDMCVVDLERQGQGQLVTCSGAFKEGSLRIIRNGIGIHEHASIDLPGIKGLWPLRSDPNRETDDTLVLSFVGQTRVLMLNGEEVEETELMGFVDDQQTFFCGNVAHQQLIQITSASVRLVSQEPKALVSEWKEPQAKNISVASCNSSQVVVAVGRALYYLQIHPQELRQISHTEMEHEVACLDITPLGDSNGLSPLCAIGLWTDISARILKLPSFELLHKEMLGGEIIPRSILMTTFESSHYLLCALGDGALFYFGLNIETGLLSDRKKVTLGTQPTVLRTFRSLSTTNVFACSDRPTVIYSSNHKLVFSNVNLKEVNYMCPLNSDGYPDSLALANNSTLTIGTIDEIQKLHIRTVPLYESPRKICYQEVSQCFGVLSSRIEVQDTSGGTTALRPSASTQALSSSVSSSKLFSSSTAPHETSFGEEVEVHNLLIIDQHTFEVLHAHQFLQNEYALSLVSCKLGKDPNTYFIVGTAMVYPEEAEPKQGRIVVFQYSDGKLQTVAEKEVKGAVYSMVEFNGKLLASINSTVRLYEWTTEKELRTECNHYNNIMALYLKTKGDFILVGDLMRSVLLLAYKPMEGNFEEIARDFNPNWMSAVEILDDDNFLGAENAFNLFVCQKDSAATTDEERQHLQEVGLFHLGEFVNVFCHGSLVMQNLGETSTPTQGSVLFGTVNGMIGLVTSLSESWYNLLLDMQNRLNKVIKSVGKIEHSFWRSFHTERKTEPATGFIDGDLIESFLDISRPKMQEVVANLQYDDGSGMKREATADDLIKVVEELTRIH
SMILES,IC50 [1],DC50 (GSPT1; [2]),DC50 (GSPT1; [3])
CN(C)c1ccc(NC(=O)NCc2ccc3c(c2)C(=O)N(C2CCC(=O)NC2=O)C3)cc1 (stereo not shown) [Compound 79],0.317 µM,> 0.3 µM,
Nc1cccc(NC(=O)NCc2ccc3c(c2)C(=O)N(C2CCC(=O)NC2=O)C3)c1 (stereo not shown) [Compound 80],0.515 µM,> 0.3 µM,
Nc1ccc(NC(=O)NCc2ccc3c(c2)C(=O)N(C2CCC(=O)NC2=O)C3)cc1 (stereo not shown) [Compound 81],0.919 µM,> 0.3 µM,
Cn1cc(NC(=O)NCc2ccc3c(c2)C(=O)N(C2CCC(=O)NC2=O)C3)cn1 (stereo not shown) [Compound 83],0.387 µM,> 0.3 µM,
O=C1CCC(N2Cc3ccc(CNC(=O)Nc4ccsc4)cc3C2=O)C(=O)N1 (stereo not shown) [Compound 84],0.348 µM,> 0.3 µM,
COc1c(NC(=O)NCc2ccc3c(c2)C(=O)N(C2CCC(=O)NC2=O)C3)ccc(C)c1Cl (stereo not shown) [Compound 86],0.203 µM,> 0.3 µM,
Cn1ccc(NC(=O)NCc2ccc3c(c2)C(=O)N(C2CCC(=O)NC2=O)C3)n1 (stereo not shown) [Compound 88],0.351 µM,> 0.3 µM,
CN(C)c1cccc(NC(=O)NCc2ccc3c(c2)C(=O)N(C2CCC(=O)NC2=O)C3)c1 (stereo not shown) [Compound 89],0.225 µM,0.1 to 0.3 µM,0.198 µM
O=C1CCC(N2Cc3ccc(CNC(=O)Nc4cccc(OC(F)(F)F)c4)cc3C2=O)C(=O)N1 (stereo not shown) [Compound 90],0.471 µM,≤ 0.1 µM,
O=C1CCC(N2Cc3ccc(CNC(=O)Nc4cccs4)cc3C2=O)C(=O)N1 (stereo not shown) [Compound 91],0.315 µM,> 0.3 µM,
O=C1CCC(N2Cc3ccc(CNC(=O)Nc4nccs4)cc3C2=O)C(=O)N1 (stereo not shown) [Compound 92],0.304 µM,> 0.3 µM,
Cc1ccc(NC(=O)NCc2ccc3c(c2)C(=O)N(C2CCC(=O)NC2=O)C3)c(C)c1Cl (stereo not shown) [Compound 93],0.248 µM,> 0.3 µM,
O=C1CCC(N2Cc3ccc(CNC(=O)Nc4ccon4)cc3C2=O)C(=O)N1 (stereo not shown) [Compound 94],0.408 µM,> 0.3 µM,
O=C1CCC(N2Cc3ccc(CNC(=O)Nc4cccnc4)cc3C2=O)C(=O)N1 (stereo not shown) [Compound 95],0.432 µM,> 0.3 µM,
Cc1cc(Cl)c(NC(=O)NCc2ccc3c(c2)C(=O)N(C2CCC(=O)NC2=O)C3)c(C)c1Cl (stereo not shown) [Compound 96],0.222 µM,> 0.3 µM,
Cc1cc(NC(=O)NCc2ccc3c(c2)C(=O)N(C2CCC(=O)NC2=O)C3)no1 (stereo not shown) [Compound 97],0.301 µM,> 0.3 µM,
O=C1CCC(N2Cc3ccc(CNC(=O)Nc4cc[nH]c4)cc3C2=O)C(=O)N1 (stereo not shown) [Compound 98],0.404 µM,> 0.3 µM,
O=C1CCC(N2Cc3ccc(CNC(=O)Nc4cscn4)cc3C2=O)C(=O)N1 (stereo not shown) [Compound 99],0.367 µM,> 0.3 µM,
Cc1cc(C)c(NC(=O)NCc2ccc3c(c2)C(=O)N(C2CCC(=O)NC2=O)C3)c(Cl)c1Cl (stereo not shown) [Compound 100],0.178 µM,> 0.3 µM,

SMILES,IC50 [1],DC50 (GSPT1; [2]),DC50 (GSPT1; [3])
"Cc1ccc(NC(=O)NCc2ccc3c(c2)C(=O)N(C2CCC(=O)NC2=O)C3)cc1CN1CCOCC1 (stereo not shown) [Compound 101, 1-((2-(2,6-dioxopiperidin-3-yl)-3-oxoisoindolin-5-yl)methyl)-3-(4-methyl-3-(morpholinomethyl)phenyl)urea]",0.325 µM,0.1 to 0.3 µM,0.224 µM
O=C1CCC(N2Cc3ccc(CNC(=O)Nc4cc[nH]n4)cc3C2=O)C(=O)N1 (stereo not shown) [Compound 102],0.389 µM,> 0.3 µM,
O=C1CCC(N2Cc3ccc(CNC(=O)Nc4cncs4)cc3C2=O)C(=O)N1 (stereo not shown) [Compound 103],0.272 µM,> 0.3 µM,
O=C1CCC(N2Cc3ccc(CNC(=O)Nc4ccncc4)cc3C2=O)C(=O)N1 (stereo not shown) [Compound 104],0.234 µM,> 0.3 µM,
O=C1CCC(N2Cc3ccc(CNC(=O)Nc4cccc(C(F)F)c4)cc3C2=O)C(=O)N1 (stereo not shown) [Compound 106],0.353 µM,0.1 to 0.3 µM,0.188 µM
Cc1cc(C)c(NC(=O)NCc2ccc3c(c2)C(=O)N(C2CCC(=O)NC2=O)C3)c(C)c1Cl (stereo not shown) [Compound 107],0.247 µM,> 0.3 µM,
O=C1CCC(N2Cc3ccc(CNC(=O)Nc4cn[nH]c4)cc3C2=O)C(=O)N1 (stereo not shown) [Compound 108],0.661 µM,> 0.3 µM,
Cc1c(Cl)cc(NC(=O)NCc2ccc3c(c2)C(=O)N(C2CCC(=O)NC2=O)C3)cc1CN1CC2(COC2)C1 (stereo not shown) [Compound 109],0.163 µM,0.1 to 0.3 µM,0.246 µM
O=C1CCC(N2Cc3ccc(CNC(=O)Nc4cccc(OC(=O)CN5CCOCC5)c4)cc3C2=O)C(=O)N1 (stereo not shown) [Compound 110],0.302 µM,> 0.3 µM,
O=C1CCC(N2Cc3ccc(CNC(=O)Nc4cccc(OC5CCNCC5)c4)cc3C2=O)C(=O)N1 (stereo not shown) [Compound 111],0.24 µM,> 0.3 µM,
O=C1CCC(N2Cc3ccc(CNC(=O)Nc4cccc(-c5ncc[nH]5)c4)cc3C2=O)C(=O)N1 (stereo not shown) [Compound 112],0.27 µM,> 0.3 µM,
Cc1nccn1-c1cccc(NC(=O)NCc2ccc3c(c2)C(=O)N(C2CCC(=O)NC2=O)C3)c1 (stereo not shown) [Compound 113],0.283 µM,> 0.3 µM,
O=C1CCC(N2Cc3ccc(CNC(=O)Nc4ccc(C(F)F)cc4)cc3C2=O)C(=O)N1 (stereo not shown) [Compound 114],0.443 µM,> 0.3 µM,
Cn1nccc1-c1cccc(NC(=O)NCc2ccc3c(c2)C(=O)N(C2CCC(=O)NC2=O)C3)c1 (stereo not shown) [Compound 115],0.23 µM,0.1 to 0.3 µM,0.299 µM
Cn1ccc(-c2cccc(NC(=O)NCc3ccc4c(c3)C(=O)N(C3CCC(=O)NC3=O)C4)c2)n1 (stereo not shown) [Compound 116],0.139 µM,> 0.3 µM,
Cc1c(Cl)cc(NC(=O)NCc2ccc3c(c2)C(=O)N(C2CCC(=O)NC2=O)C3)cc1OCCCN(C)C (stereo not shown) [Compound 117],0.152 µM,> 0.3 µM,
Cc1cc(NC(=O)NCc2ccc3c(c2)C(=O)N(C2CCC(=O)NC2=O)C3)cc(CN2CCOCC2)c1C (stereo not shown) [Compound 118],0.256 µM,≤ 0.1 µM,
Cc1c(Cl)cc(NC(=O)NCc2ccc3c(c2)C(=O)N(C2CCC(=O)NC2=O)C3)cc1CN1CC2CCC(C1)O2 (stereo not shown) [Compound 140],0.559 µM,,
Cc1c(Cl)cc(NC(=O)NCc2ccc3c(c2)C(=O)N(C2CCC(=O)NC2=O)C3)cc1CN1CCN2CCC1C2 (stereo not shown) [Compound 154],0.688 µM,,

# — patent US20220242846A1, “ISOINDOLINONE COMPOUNDS” (Monte Rosa Therapeutics AG, priority 2019, published 2022)
